Experimental data reported in US20140088034A1, “NITRIC OXIDE/cGMP PATHWAY INHIBITION OF VLA-4 RELATED CELL ADHESION” (STC.UNM, priority 2011, published 2014).
Residues, ends and D or L forms follow the SMILES beside them.

Legend:
VLA-4 [1] = experiment: Real-time flow cytometric binding of LDV-FITC probe (VLA-4 affinity change) on GPCR-transfected U937 cells; assay type: cell-based, human; conditions: for effect on magnitude of LDV-FITC binding response, compound added prior to IL-8 activation: U937 CXCR2/IL-8RB; for effect on magnitude of LDV-FITC binding response, compound added prior to IL-8 activation / effect on magnitude of LDV-FITC binding response, compound added prior to SDF-1 activation: added at 0 time point, BAY 41-2272 100 μM; for effect on magnitude of LDV-FITC binding response, compound added prior to SDF-1 activation: U937 CXCR4; for reversibility of the decrease in LDV-FITC binding / effect on LDV-FITC binding, compound added after fMLFF activation: U937 non-desensitizing FPR mutant (ΔST), LDV-FITC 4 nM, fMLFF 100 nM; for effect on LDV-FITC binding, compound added after fMLFF activation: different concentrations
Description: Experiments were conducted as described under “Methods”, infra. A, LDV-FITC probe binding and dissociation on U937 cells stably transfected with the non-desensitizing mutant of FPR (ΔST) receptor plotted as mean channel fluorescence (MCF) versus time.
The experiment involved sequential addition of fluorescent LDV-FITC probe (4 nM, below saturation, added 2 min prior to addition of Gαi-coupled receptor ligand, fMLFF, 100 nM), and different concentrations of DEA-NONOate (nitric oxide donor) (arrows). Control cells were treated with vehicle. The MCF value corresponding to cell autofluorescence is indicated by the horizontal arrow. […] Curves are means of two independent determinations calculated on a point-by-point basis (n=2). B, LDV-FITC probe binding and dissociation on U937 cells stably transfected with wild type CXCR4 receptor plotted as mean channel fluorescence (MCF) versus time.
The experiment involved sequential addition of fluorescent LDV-FITC probe (4 nM), CXCL12/SDF-1 (12 nM), and DEA-NONOate (250 μM, nitric oxide donor) or vehicle (control) (arrows). Rapid and reversible binding of the probe reflects the VLA-4 affinity change. Curves are means of two independent determinations calculated on a point-by-point basis (n=2). SEM of mean, calculated on a point by point basis, indicated using error bars to show significance of the difference between treatment and control samples. C, LDV-FITC probe binding and dissociation on U937 cells stably transfected with wild type CXCR2/IL-8RB receptor plotted as mean channel fluorescence (MCF) versus time.
The experiment involved sequential addition of the fluorescent LDV-FITC probe (4 nM), CXCL8/IL-8 (20 nM), and DEA-NONOate (250 μM, nitric oxide donor) or vehicle (control) (arrows). This experiment is analogous to the one shown in panel B. One representative experiment of three experiments is shown. Curves are means of two independent determinations calculated on a point-by-point basis (n=2). D, LDV-FITC probe binding and dissociation on U937 cells stably transfected with wild type CXCR4 receptor plotted as mean channel fluorescence (MCF) versus time.
The experiment involved sequential addition of the DEA-NONOate (250 μM, nitric oxide donor) or vehicle (control) at the 0 time point, and the fluorescent LDV-FITC probe (4 nM), CXCL12/SDF-1 (12 nM) (arrows). Rapid and reversible binding of the probe reflects the VLA-4 affinity change. Excess unlabelled competitor LDV (1 μM) is added at the end of the experiment to determine the non-specific binding of the probe. Curves are means of two independent determinations calculated on a point-by-point basis (n=2). SEM, calculated on a point by point basis, is indicated using error bars to show the significance of the difference between treatment and control samples. E, LDV-FITC probe binding and dissociation on U937 cells stably transfected with wild type CXCR2/IL-8RB receptor plotted as mean channel fluorescence (MCF) versus time.
The experiment involved sequential addition of DEA-NONOate (250 μM, nitric oxide donor) or vehicle (control) at the 0 time point, and the fluorescent LDV-FITC probe (4 nM), CXCL8/IL-8 (20 nM) (arrows). Excess unlabelled competitor LDV (1 μM) added at the end of the experiment to determine the non-specific binding of the probe. This experiment is analogous to the one shown in panel D. One representative experiment of three experiments is shown. Curves are means of two independent determinations calculated on a point-by-point basis (n=2). […] Experiments shown in the different panels were performed using different instruments, and therefore MCF values are not identical. […]
LDV-FITC probe binding and dissociation on U937 cells stably transfected with the non-desensitizing mutant of FPR plotted as mean channel fluorescence (MCF) versus time. […]

VLA-4 [2] = target: VLA-4 (Homo sapiens, UniProt P05556+P13612); experiment: Kinetic dissociation rate (koff) analysis of LDV-FITC probe on U937 cells with non-desensitizing FPR mutant; assay type: cell-based; conditions: U-937; U937 FPR ΔST; fMLFF 100 nM then BAY 41-2272 50 μM; LDV-FITC 25 nM, LDV block 2 μM; read-out: dissociation rate constant koff of LDV-FITC after fMLFF and BAY 41-2272
Sequence of VLA-4 (Homo sapiens, UniProt P05556+P13612) (P13612 34-1032): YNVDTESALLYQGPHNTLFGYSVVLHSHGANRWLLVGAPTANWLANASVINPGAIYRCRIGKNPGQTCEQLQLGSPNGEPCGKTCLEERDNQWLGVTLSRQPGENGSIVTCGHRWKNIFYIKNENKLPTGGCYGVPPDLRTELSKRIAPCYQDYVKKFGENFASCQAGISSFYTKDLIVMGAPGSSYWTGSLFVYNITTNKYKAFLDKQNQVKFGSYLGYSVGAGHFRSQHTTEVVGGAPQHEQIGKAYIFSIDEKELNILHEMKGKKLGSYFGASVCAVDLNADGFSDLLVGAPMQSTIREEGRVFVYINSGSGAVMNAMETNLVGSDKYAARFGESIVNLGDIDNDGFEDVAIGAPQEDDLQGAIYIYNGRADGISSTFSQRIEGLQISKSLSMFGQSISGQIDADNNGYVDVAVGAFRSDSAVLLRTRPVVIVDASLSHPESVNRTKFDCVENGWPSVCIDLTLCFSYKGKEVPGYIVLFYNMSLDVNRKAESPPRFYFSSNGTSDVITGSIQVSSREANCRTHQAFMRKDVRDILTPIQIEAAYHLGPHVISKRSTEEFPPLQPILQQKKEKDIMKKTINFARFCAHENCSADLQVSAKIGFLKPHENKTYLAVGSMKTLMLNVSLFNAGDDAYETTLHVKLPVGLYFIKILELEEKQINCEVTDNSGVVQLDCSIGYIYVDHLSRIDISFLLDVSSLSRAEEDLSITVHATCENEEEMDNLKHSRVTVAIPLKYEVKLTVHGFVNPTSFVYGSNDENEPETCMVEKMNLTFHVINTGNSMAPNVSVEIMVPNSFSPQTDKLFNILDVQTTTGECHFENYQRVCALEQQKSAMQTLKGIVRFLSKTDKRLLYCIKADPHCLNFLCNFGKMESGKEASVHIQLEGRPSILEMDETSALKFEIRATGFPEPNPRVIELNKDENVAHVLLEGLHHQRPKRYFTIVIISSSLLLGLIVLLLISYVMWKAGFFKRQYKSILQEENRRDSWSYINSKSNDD
Sequence of VLA-4 (Homo sapiens, UniProt P05556+P13612) (P05556 21-798): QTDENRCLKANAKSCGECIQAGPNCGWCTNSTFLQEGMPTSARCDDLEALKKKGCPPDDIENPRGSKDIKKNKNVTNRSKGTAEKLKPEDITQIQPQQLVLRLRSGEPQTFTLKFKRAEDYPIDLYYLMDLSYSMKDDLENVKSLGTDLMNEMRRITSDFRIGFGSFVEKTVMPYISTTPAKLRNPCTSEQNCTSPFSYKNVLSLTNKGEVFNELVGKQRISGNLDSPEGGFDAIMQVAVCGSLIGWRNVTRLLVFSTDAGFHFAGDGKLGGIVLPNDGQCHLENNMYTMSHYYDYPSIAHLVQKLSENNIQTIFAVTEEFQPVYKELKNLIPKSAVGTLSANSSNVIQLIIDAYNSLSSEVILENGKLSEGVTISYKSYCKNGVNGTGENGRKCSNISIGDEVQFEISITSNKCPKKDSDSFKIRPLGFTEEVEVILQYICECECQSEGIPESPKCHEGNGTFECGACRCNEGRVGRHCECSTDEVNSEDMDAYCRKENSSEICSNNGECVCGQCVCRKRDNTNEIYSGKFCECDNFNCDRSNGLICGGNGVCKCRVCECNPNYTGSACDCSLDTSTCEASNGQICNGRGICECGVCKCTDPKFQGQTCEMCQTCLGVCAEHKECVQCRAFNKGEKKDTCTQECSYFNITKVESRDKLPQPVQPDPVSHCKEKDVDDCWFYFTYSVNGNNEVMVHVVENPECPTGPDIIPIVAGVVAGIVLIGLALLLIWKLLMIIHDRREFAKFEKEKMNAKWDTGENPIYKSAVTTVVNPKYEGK
Description: The experiment involved sequential addition of BAY 41-2272 (100 μM, guanylyl cyclase activator) or vehicle (control) at the 0 time point, and the fluorescent LDV-FITC probe (4 nM), and CXCL8/IL-8 (20 nM) (arrows). Excess unlabelled competitor LDV (1 μM) added at the end of the experiment to determine the non-specific binding of the probe. This experiment is analogous to the one shown in panel B. One representative experiment of two experiments is shown. Curves are means of two independent determinations calculated on a point-by-point basis (n=2). […] D, Kinetic analysis of binding and dissociation of LDV-FITC probe on U937 cells stably transfected with the non-desensitizing mutant of FPR. Cells were sequentially treated with the LDV-FITC probe (25 nM, near saturation), the Gαi-coupled receptor ligand (fMLFF, 100 nM), BAY 41-2272 (guanylyl cyclase activator, 50 μM) (arrows). At time points indicated by arrows, cells were treated with excess unlabeled LDV containing small molecule (2 μM), and the dissociation of the fluorescent molecule was followed. Dissociation rate constants (koff) were obtained by fitting dissociation curves to a single exponential decay equation (as described in the text). Experiments shown in the different panels were performed using different instruments, and therefore MCF values are not identical. E, Dissociation rate values, obtained in experiments analogous to panel B, summarized as a bar graph showing mean and SEM (n=4). Colors of the dissociation curves in panel D and bars on panel E are matching. The difference between koffs for “resting” and “fMLFF activated”, and between “fMLFF activated” and “fMLFF activated and treated with BAY 41-2272” is statistically significant (P=0.0006<0.05) as calculated by one-way analysis of variance (ANOVA) using GraphPad Prism software. […]
Next, the regions of the ligand-binding curves corresponding to the dissociation of the LDV-FITC probe were fitted to a single exponential decay equation. […] The affinity state induced by guanylyl cyclase activator was quantitatively similar to the resting state before activation. […]

[3] = test system: VLA-4/VCAM-1 dependent cell adhesion; experiment: Real-time cell aggregation between U937 FPR (ΔST) and VCAM-1-transfected B78H1 cells; assay type: cell-based, human; conditions: U937 FPR ΔST + B78H1/VCAM-1; fMLFF 100 nM; DEA-NONOate 250 μM; LDV block 2 μM 6 min after mixing
Description: Real-time aggregation experiments were conducted as described under “Methods”, infra. U937/AST FPR stably transfected cells, which constitutively express VLA-4, were labeled with red fluorescent dye, and B78H1/VCAM-1 transfectants were stained with green fluorescent dye. […] Next, cells were mixed and real-time cell aggregation (red and green double positive events) was followed. To determine the level of VLA-4 dependent cell aggregation, 6 min after cell mixing, excess unlabelled VLA-4 specific ligand was added (arrow, LDV block, 2 μM).
Prior to the experiment, individual cell populations were stained with either of two fluorescent dyes (red and green). Next, the cell populations were mixed, and the appearance of double positive events, representing cellular aggregates, was followed in real-time by flow cytometry (see FIG. 1, 2, 3 in [55] for method details).
The cell suspension adhesion assay has been described previously. Briefly, U937/AST FPR stably transfected cells were labeled with red fluorescent PKH26GL dye, and B78H1/VCAM-1 transfectants were stained with green fluorescent PKH67GL dye (Sigma-Aldrich). Labeled cells were washed, resuspended in HEPES buffer supplemented with 0.1% HSA and stored on ice until used in assays. Control U937 cells were preincubated with the 1 μM LDV-containing small molecule for blocking adhesion. Prior to data acquisition, cells were warmed to 37° C. for 10 min separately and then mixed. During data acquisition, the samples were stirred with a 5×2-mm magnetic stir bar (Bel-Art Products, Pequannock, N.J.) at 300 rpm and kept at 37° C. For stimulation, cells were treated with appropriate GPCR ligands at saturating concentration (10 times or higher than Kd). In several experiments cells were treated sequentially with two different compounds. […] The percentage of aggregates was calculated as follows: % U937 cells in aggregates=number of aggregates/(number of aggregates+number of U937 singlets))×100. […]

[4] = DEA-NONOate 250 μM, CXCL8/IL-8 20 nM
[5] = DEA-NONOate 250 μM, CXCL12/SDF-1 12 nM

Compound | effect on magnitude of LDV-FITC binding response, compound added prior to IL-8 activation (VLA-4 [1]; [4]) | effect on magnitude of LDV-FITC binding response, compound added prior to SDF-1 activation (VLA-4 [1]; [5]) | reversibility of the decrease in LDV-FITC binding (VLA-4 [1]) | effect on LDV-FITC binding, compound added after fMLFF activation (VLA-4 [1]) | koff (VLA-4 [2]) | effect on LDV-FITC binding, compound added after CXCL8/IL-8 activation (VLA-4 [1]; U937 wild type CXCR2/IL-8RB, CXCL8/IL-8 20 nM, DEA-NONOate 250 μM) | effect on LDV-FITC binding, compound added after CXCL12/SDF-1 activation (VLA-4 [1]; U937 wild type CXCR4, CXCL12/SDF-1 12 nM, DEA-NONOate 250 μM) | effect on VLA-4/VCAM-1 dependent cell aggregation (% U937 cells in aggregates) [3]
Nc1nc(-c2nn(Cc3ccccc3F)c3ncccc23)ncc1C1CC1 [BAY 41-2272, 3-(4-Amino-5-cyclopropylpyrimidin-2-yl)-1-(2-fluorobenzyl)-1H-pyrazolo[3,4-b]pyridine] | decrease in the magnitude of the response | decrease in the magnitude of the response | partially reversible | significant decrease in LDV-FITC binding | ~0.036 s⁻¹ |  |  | 
CCN(CC)/[N+]([O-])=N/O [DEA-NONOate] | significant decrease in the magnitude of the response | significant decrease in the magnitude of the response | not reversible | rapid and dose-dependent decrease in the binding of the VLA-4 specific ligand |  | faster and more pronounced signal decrease | faster and more pronounced signal decrease | abolished fMLFF-dependent cellular aggregation
Cc1ccccc1NC(=O)Nc1ccc(CC(=O)N[C@@H](CC(C)C)C(=O)N[C@@H](CC(=O)O)C(=O)N[C@H](C(=O)N2CCC[C@H]2C(=O)N[C@@H](C)C(=O)N[C@@H](C)C(=O)N[C@@H](CCCCN)C(=O)O)C(C)C)cc1 [LDV, 4-((N′-2-methylphenyl)ureido)-phenylacetyl-L-leucyl-L-aspartyl-L-valyl-L-prolyl-L-alanyl-L-alanyl-L-lysine] |  |  |  |  |  |  |  | rapid cellular disaggregation
CCCC(=O)Nc1nc2c(ncn2C2OC3COP(=O)([O-])OC3C2OC(=O)CCC)c(=O)[nH]1.[Na+] (stereo not shown) [dbcGMP, N^2,2′-O-Dibutyrylguanosine 3′,5′-cyclic monophosphate] |  |  | reversible | dose-dependent decrease in the binding of the probe |  |  |  | 
CSCC[C@H](NC=O)C(=O)N[C@@H](CC(C)C)C(=O)N[C@@H](Cc1ccccc1)C(=O)N[C@@H](Cc1ccccc1)C(=O)O [fMLFF, N-formyl-L-methionyl-L-leucyl-L-phenylalanyl-L-phenylalanine] (HELM PEPTIDE1{[O=C[*:2]].M.L.F.F}$$$$V2.0) |  |  |  |  |  |  |  | rapid increase in cell aggregation
